{"source": "BindingDB's records for PubMed 36346645", "about": "(University of Copenhagen, 2022)", "target": "Calcium/calmodulin-dependent protein kinase type II subunit alpha (Rattus norvegicus, UniProt P11275)", "sequence (P11275 whole entry)": "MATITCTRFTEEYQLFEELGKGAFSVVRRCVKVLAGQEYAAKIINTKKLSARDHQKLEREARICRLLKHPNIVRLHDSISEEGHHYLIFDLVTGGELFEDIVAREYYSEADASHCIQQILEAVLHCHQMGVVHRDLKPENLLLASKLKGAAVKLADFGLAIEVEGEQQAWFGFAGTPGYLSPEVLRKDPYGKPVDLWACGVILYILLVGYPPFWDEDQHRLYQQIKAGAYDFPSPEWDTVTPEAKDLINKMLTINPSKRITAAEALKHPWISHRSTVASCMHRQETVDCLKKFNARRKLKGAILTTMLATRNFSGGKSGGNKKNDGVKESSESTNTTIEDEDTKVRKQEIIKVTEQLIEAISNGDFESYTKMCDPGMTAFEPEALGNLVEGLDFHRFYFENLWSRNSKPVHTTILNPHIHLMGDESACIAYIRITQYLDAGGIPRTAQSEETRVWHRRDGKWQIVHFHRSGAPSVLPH", "experiment": "Displacement of [3H]NCS-382 from CaMK2alpha in rat brain cortical membrane homogenates measured after 1 hr by TopCount scintillation counting method", "data": [{"compound": "O=C(O)/C=C1\\CCCc2cc(I)ccc2C1O", "note": "(stereo unspecified)", "values": [{"measurement": "Ki", "result": 50, "unit": "nM"}]}]}
